Measured values: US11925733B2, “Malodor counteractant composition and methods” (Bell Flavors & Fragrances, Inc., priority 2016, dated 2024)

Assay: Gas chromatographic headspace measurement of fragrance compounds with and without zinc ricinoleate
Format: physicochemical
Conditions: 100 ng of each fragrance chemical on a film of 0.5 g zinc ricinoleate; FIG. 4
Excerpt: The effect of zinc ricinoleate [Zn(Ri)2] on the partitioning of compounds into the headspace. Headspace analysis is a sampling technique in which a nonvolatile matrix (liquid or solid) is heated and volatiles are collected as they partition (migrate) into the unfilled volume of the vial (headspace). These compounds are concentrated on an adsorbent tube then injected into the chromatograph where individual compounds are separated.
A sample of volatile compounds are placed into a vial, sealed, and heated for a period of time. The volatile compounds will migrate into the gas headspace. The more volatile the compound, the more concentrated it will be in the headspace. Conversely, the less volatile components will partition into the headspace to a lesser extent thus separating components of interest from the nonvolatile sample matrix (diaper).
For each test compound, 1 microliter of a 100 nanogram/microliter (ng/μl) solution (100 ng of each fragrance chemical) is put into a vial, warmed, purged, and volatiles concentrated in an adsorbent cartridge. The cartridge is desorbed into the GC where individual compounds are separated. A second set of each of the fragrance chemicals is prepared and added to a vial where 0.5 g zinc ricinoleate has been added. […]

## zinc ricinoleate
  effect on headspace volatility of fragrance chemicals: reduction of volatility
